Laboratory results taken from ChEMBL document CHEMBL1136873, “Application of combinatorial biocatalysis for a unique ring expansion of dihydroxymethylzearalenone” (Bioorg Med Chem Lett, 2009).
The source made the active and inactive calls. The rule behind the calls is not given here.

Biological target: T1, Tyrosine-protein kinase Lck (Homo sapiens, UniProt P06239)
Target sequence in this assay (P06239 whole entry): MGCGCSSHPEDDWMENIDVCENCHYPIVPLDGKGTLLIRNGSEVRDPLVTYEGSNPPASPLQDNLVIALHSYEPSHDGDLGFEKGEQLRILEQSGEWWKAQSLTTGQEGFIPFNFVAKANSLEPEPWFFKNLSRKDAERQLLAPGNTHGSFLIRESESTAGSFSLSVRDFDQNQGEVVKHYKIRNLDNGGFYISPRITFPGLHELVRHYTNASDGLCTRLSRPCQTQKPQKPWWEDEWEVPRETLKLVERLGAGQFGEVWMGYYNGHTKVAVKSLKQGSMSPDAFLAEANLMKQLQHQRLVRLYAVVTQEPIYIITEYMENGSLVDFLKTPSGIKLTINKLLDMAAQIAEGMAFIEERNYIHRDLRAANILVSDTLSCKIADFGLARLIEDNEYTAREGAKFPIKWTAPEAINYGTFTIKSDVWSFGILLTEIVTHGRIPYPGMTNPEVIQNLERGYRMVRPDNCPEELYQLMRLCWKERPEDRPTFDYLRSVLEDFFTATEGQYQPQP

| SMILES | IC50 [nM] |
| --- | --- |
| COc1cc(O)c2c(c1)/C=C/C[C@@H](O)[C@H](O)C(=O)CCC[C@H](C)OC2=O [DIHYDROXYMETHYLZEARALENONE] | 200 |
| COc1cc(O)c2c(c1)CCCC(O)[C@H](O)C(=O)/C=C\C[C@H](C)OC2=O (single isomer, unassigned) | 750 |

Tested on: not listed separately
Assay: Inhibition of MAPK

| SMILES | IC50 [nM] |
| --- | --- |
| COc1cc(O)c2c(c1)CCCC(O)[C@H](O)C(=O)/C=C\C[C@H](C)OC2=O (single isomer, unassigned) | 4 |

Biological target: T1, Tyrosine-protein kinase Lck
Assay: Inhibition of LCK at 10 uM
Target sequence in this assay (P06239 2-509 limits assumed): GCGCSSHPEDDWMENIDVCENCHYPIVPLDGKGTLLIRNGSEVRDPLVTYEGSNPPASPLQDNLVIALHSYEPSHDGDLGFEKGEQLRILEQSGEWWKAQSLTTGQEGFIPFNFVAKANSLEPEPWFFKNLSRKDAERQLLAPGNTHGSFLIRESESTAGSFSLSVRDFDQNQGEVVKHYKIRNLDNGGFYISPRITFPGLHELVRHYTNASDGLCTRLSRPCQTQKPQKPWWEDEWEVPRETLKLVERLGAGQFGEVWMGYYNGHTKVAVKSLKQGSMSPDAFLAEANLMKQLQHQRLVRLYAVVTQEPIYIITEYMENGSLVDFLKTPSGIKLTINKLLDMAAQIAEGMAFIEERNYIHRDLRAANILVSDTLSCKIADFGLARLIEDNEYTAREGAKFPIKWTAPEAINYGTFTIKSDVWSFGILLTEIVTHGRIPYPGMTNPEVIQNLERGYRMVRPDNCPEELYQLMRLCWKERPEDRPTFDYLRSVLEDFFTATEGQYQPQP

| Activity | SMILES |
| --- | --- |
| inactive | COc1cc(O)c2c(c1)/C=C/CC(=O)OCCCCOC(=O)CCC[C@H](C)OC2=O |
| inactive | COc1cc(O)c2c(c1)/C=C/CC(=O)OCCCCCCOC(=O)CCC[C@H](C)OC2=O |
| inactive | COc1cc(O)c2c(c1)/C=C/CC(=O)OCCC1(CCCCC1)CCOC(=O)CCC[C@H](C)OC2=O |
| inactive | COc1cc(O)c2c(c1)/C=C/CC(=O)OCCCCCCCCOC(=O)CCC[C@H](C)OC2=O |
| inactive | COc1cc(O)c2c(c1)/C=C/CC(=O)NCCCOCCCNC(=O)CCC[C@H](C)OC2=O |
| inactive | COc1cc(O)c2c(c1)/C=C/CC(=O)OCCOC(=O)CCC[C@H](C)OC2=O |
| inactive | COc1cc(O)c2c(c1)/C=C/CC(=O)OCCCOCCCOC(=O)CCC[C@H](C)OC2=O |
| inactive | COc1cc(O)c2c(c1)/C=C/CC(=O)OCCOCC#CCOCCOC(=O)CCC[C@H](C)OC2=O |

More lines, now with the values behind:

| SMILES | Activity |
| --- | --- |
| COc1cc(O)c2c(c1)/C=C/CC(=O)NCCCN(C)CCCNC(=O)CCC[C@H](C)OC2=O | inactive |
| COc1cc(O)c2c(c1)/C=C/CC(=O)NCCCCNC(=O)CCC[C@H](C)OC2=O | inactive |
| COc1cc(O)c2c(c1)/C=C/CC(=O)OCCCC(c1ccccc1)(C(O)c1ccccc1)CCCOC(=O)CCC[C@H](C)OC2=O (stereo not given in full) | inactive |
| COc1cc(O)c2c(c1)/C=C/CC(=O)NCCCCCCCNC(=O)CCC[C@H](C)OC2=O | inactive |
| COc1cc(O)c2c(c1)/C=C/CC(=O)OCc1cccc(c1)COC(=O)CCC[C@H](C)OC2=O | inactive |
| COc1cc(O)c2c(c1)/C=C/CC(=O)OC/C=C(\C)CC/C=C(\C)COC(=O)CCC[C@H](C)OC2=O | inactive |
| COc1cc(O)c2c(c1)/C=C/CC(=O)OC/C=C\COC(=O)CCC[C@H](C)OC2=O | inactive |
| COc1cc(O)c2c(c1)/C=C/CC(=O)NCCCOCCCCOCCCNC(=O)CCC[C@H](C)OC2=O | inactive |
| COc1cc(O)c2c(c1)/C=C/CC(=O)OCCCC(c1ccccc1)(C(C)O)CCCOC(=O)CCC[C@H](C)OC2=O (stereo not given in full) | inactive |
